Experimental data taken from US7390788B2, “Peptide pharmaceutical compositions” (priority 2005, dated 2008).
Like-named read-outs stand apart in the source and are kept apart here.

Key:
nasal mucosa = conditions: in vivo; cited from earlier work
isolated nasal cilia = conditions: cited from earlier work
HIV [1] = assay: Inhibition of HIV infectivity in vitro by stored DAPTA solutions; type: cell-based
Description: Aggregation is discovered to be associated with a loss of biological activity in vitro. Typically, the recommended protocol is to have DAPTA stored at 0.1 mM solutions in water at 4° C.
Aggregation is reduced in the presence of trifluoroethanol (TFE). TFE was selected because of its property of reducing certain types of protein-protein interactions. DAPTA was dissolved in either distilled water, or solutions containing between 60% and 100% TFE. Aggregation was evaluated by assaying inhibition of HIV infectivity, in vitro. […] Also, TFE is capable of disassociating preformed aggregates of DAPTA. Aggregates of DAPTA, formed in distilled water were disrupted by addition of TFE to 80%, as measured by EM.

HIV BaL = type: cell-based, HIV-1; conditions: dried
Description: Peptide was dissolved at 5 mg/ml in water, stored at ambient temperature, ca 23-27° C., and samples tested for biological activity in an HIV infection assay.
Inhibition of HIV infection is studied by utilizing an infection assay in which GHOST CD4 CCR5 cells are infected with HIV BaL, an R5 tropic isolate (Ruff, M R et al., 2001). Infection is detected via viral induction of the hGFP gene (green fluorescent protein) 48 hrs post-infection. Trays are measured in a plate reader to determine fluorescence intensity. All infections are performed by adding fresh culture medium containing approximately 1,000 infectious units of HIV-1 per well (96-well plates).
Samples were then aged by storage at ambient temperature (ca 25° C.) for 14 days prior to antiviral testing. […] In FIG. 5, only the short term 6 hour sample is stored at 4° C., while the other samples are stored at 37° C.
The peptide was dissolved in the indicated concentration of TFE in water and then shaken or agitated for 24 hrs at 37° C. The peptide was subsequently dried down, and the TFE/water mixture removed under vacuum. […] Although TFE is removed, residual traces of TFE within acceptable range for human consumption may remain.
Inhibition of HIV infection was studied by utilizing an infection assay using GHOST CD4 as previously described by Ruff, M R et al., 2001. CCR5 cells are infected with HIV BaL, an R5 tropic isolate. Infection is detected via viral induction of the hGFP gene (green fluorescent protein) about 48 hours post-infection. Trays were measured in a plate reader to determine fluorescence intensity. All infections were performed by adding fresh culture medium containing approximately 1,000 infectious units of HIV-1 per well (96-well plates).

[2] = Phase I, human; cited from earlier work
[3] = cited from earlier work
[4] = 6 mg/day for 12 weeks; cited from earlier work
HIV [5] = conditions: cited from earlier work
[6] = DAPTA fibril formation / aggregation in solution by EM (Example 3); type: physicochemical
Description: Preparation of DAPTA solutions. DAPTA was dissolved in water, and solutions maintained at various temperatures and times. To prepare fibrils, DAPTA was prepared at 10 mgs/mL in water and stored overnight at 4° C.
Determining fibril formation.
In solution, DAPTA can be shown to form ordered aggregates by EM, FTIR, and CD and dye binding. Aggregation is promoted by concentration, increased ionic strength, and reduced temperature. Although the kinetics of aggregation appear to vary, from preparation to preparation, aggregation appears to be a property associated with all batches of DAPTA examined as measured by EM.
Fibrillization can be observed in solutions prepared in 0.9% saline (10 mg/mL) when stored at 4° C. in less than 1 hour. At room or ambient temperature, fibril formation can be observed within 48 hours, although there is variation from preparation to preparation. In distilled water, DAPTA solutions at 10 mg/ml readily form aggregates at 4 deg. C., within 2 hrs, and at room temperature, within 1-7 days.

[7] = patients with moderate neuro-psychological impairment; cited from earlier work
[8] = subcutaneously, cited from earlier work
[9] = 2 mg three times daily intranasally, cited from earlier work
envelop (gp120) = conditions: 1987 report; cited from earlier work

What does the source list for benzalkonium chloride [BAC]?
Damage to the nasal mucosa (nasal mucosa): no significant damage; Mucosal ciliary clearance after application (nasal mucosa): slight prolongation; Nasal mucosal function (nasal mucosa): no detectable effect; Saccharine transport time or indicators of proinflammatory effects (nasal mucosa): did not alter; Ciliotoxicity (isolated nasal cilia): ciliotoxic

With D-ala^1-peptide T-amide [DAPTA] as the substance, how does the “Storage time to substantial loss of activity (HIV uptake inhibition in vitro)” value (HIV [1]; 0.1 mM solutions in water at 4° C.) read?
The value was “about 6 weeks”.

And the “Activity retained on storage (inhibition of HIV infectivity in vitro)” value (HIV [1]; stored in TFE between 60% and 100% vs water)?
The value was “retained more activity”.

What about the “Percent Reduction in HIV Infection” value (HIV BaL; 0.1 nM DAPTA, TFE Concentration 40 %, shaken 24 hrs at 37° C., reconstituted in water, stored about 3 days) of the same substance?
The value was 0 ± 2%.

What about the “Percent Reduction in HIV Infection” value (HIV BaL; 0.1 nM DAPTA, TFE Concentration 60 %, shaken 24 hrs at 37° C., reconstituted in water, stored about 3 days) of the same substance?
Its value is 20 ± 4%.

And the “Percent Reduction in HIV Infection” value (HIV BaL; 0.1 nM DAPTA, TFE Concentration 100 %, shaken 24 hrs at 37° C., reconstituted in water, stored about 3 days)?
The value was 98 ± 3%.

What about the “Percent Reduction in HIV Infection” value (HIV BaL; 80% TFE, shaken 12 hrs at 37 degrees Celsius, in water about three days) of the same substance?
Its value is 70 ± 4%.

And the “Percent Reduction in HIV Infection” value (HIV BaL; 80% TFE, shaken 48 hrs at 37 degrees Celsius, in water about three days)?
Its value is 100 ± 3%.

And the “Percent Reduction in HIV Infection” value (HIV BaL; 80% TFE, shaken about 24 hours at 37 ° C., in water about three days)?
The value was 100 ± 5%.

And the “Percent Reduction in HIV Infection” value (HIV BaL; 80% TFE, shaken about 24 hours at Room Temp., in water about three days)?
Its value is 70 ± 6%.

What about the Toxicity [2] of the same substance?
Its Toxicity is “complete lack of toxicity”.

And the “Patients with improved neuro-psychological performance” value ([3]; high dose (15 mg daily))?
Its value is 4/5.

What about the “Patients with improved neuro-psychological performance” value ([3]; low dose (1.5 mg daily)) of the same substance?
The value was 1/4.

And the “Treatment of painful peripheral neuropathy vs placebo” value [4]?
The value was “no statistically significant differences”.

What about the “Virus levels in stored frozen plasma” value (HIV [5]; blind NIMH analysis) of the same substance?
Its value is “significant (p<0.04) treatment effect”.

What about the “Clinical benefits versus placebo” value (HIV [5]; more cognitively impaired patients) of the same substance?
Its value is “significant clinical benefits versus placebo”.

And the “Time until fibrillization can be observed” value ([6]; 0.9% saline, 10 mg/mL, 4° C.)?
Its value is “less than 1 hour”.

What about the “Time until fibril formation can be observed” value ([6]; 0.9% saline, 10 mg/mL, room or ambient temperature) of the same substance?
The value was ≤ 48 h.

What about the “Effect of TFE on preformed aggregates, by EM” value ([6]; aggregates formed in distilled water, TFE added to 80%) of the same substance?
The value was “disrupted”.

What about the “Time until aggregates form” value ([6]; distilled water, 10 mg/ml, 4 deg. C.) of the same substance?
Its value is ≤ 2 h.

What about the “Cognitive and neuromotor function compared with controls” value [7] of the same substance?
The value was “improved”.

And the Adverse drug effects ([8]; 3 to 70 weeks)?
The Adverse drug effects was “No adverse drug effects were noted”.

What about the Lower limb pain ([8]; initial dose 10 mg daily, nine individuals) of the same substance?
The Lower limb pain was “complete or subjectively significant resolution of lower limb pain”.

What about the “Neuropsychological performance vs placebo” value ([9]; at least four months of treatment) of the same substance?
The value was “no difference”.

What about the “Neuropsychological improvement after adjustment for baseline CD4 count” value [9] of the same substance?
Its value is “greater improvement (p=0.07)”.

And the “Concentration that blocks envelop (gp120) binding and inhibits viral infectivity” value (envelop (gp120))?
The value was 10 pM.
